Results as given in ChEMBL document CHEMBL1201862, “PubChem BioAssay data set” (2004).
The source made the active and inactive calls. *1 amine or outer side, *2 acyl side, *3 side chain or, on linkers, in order; H or OH if unused. Where a SMILES comes first, the peptide text is derived from it. Bridges are numbered along the chain shown (N, C = ends). [ ]: non-standard residue; d: D form. The star is where a group is joined. X56 = CC(C)C(C)C(C(=O)[*:2])N(C)[*:1]; Picolinoyl(3-OH) = O=C(c1ncccc1O)*; NMePhg = CN[CH](C(=O)O)c1ccccc1; Hyp = O=C(O)[CH]1C[CH](O)CN1; Sar = CNCC(=O)O

Key:
BJ [1] = assay: BJ-TERT fibroblast viability loss – cell-based, RAS-independent, luminescence, dose response (AID 1933); format: functional; settings: Homo sapiens
[2] = biological target: T1, Polyadenylate-binding protein 1 (Homo sapiens, UniProt P11940); assay: MLLE binding blockers, Cy5 peptide tracer – biochemical, fluorescence polarization, Cy5-PAM2 peptide, secondary, miRNA deadenylation inhibitor project, dose response (AID 602260); format: functional; settings: read-out: IC50_Mean
[3] = DRD fibroblast viability loss – cell-based, non-viral oncogenic, luminescence, dose response (AID 1934); format: functional; settings: Homo sapiens
BJ [4] = assay: cells; format: functional, cell-based; settings: Homo sapiens
BJ [5] = assay: BJ-TERT-LT-ST fibroblast viability loss – cell-based, RAS-independent, luminescence, dose response (AID 1935); format: functional; settings: Homo sapiens;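 also: BJ fibroblasts immortalized with TERT plus LT and ST oncogenes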
[6] = biological target: T1, Polyadenylate-binding protein 1; assay: MLLE domain peptide-binding blockers, IC50 – biochemical, fluorescence polarization, FITC-PAM2 peptide, dose response (AID 602259); format: functional; settings: read-out: IC50_Mean
[7] = biological target: FAD-linked sulfhydryl oxidase ALR (Homo sapiens, UniProt P55789); assay: ALR-catalysed DTT oxidation blockers – biochemical, H2O2 detection, luminescence, cherry-pick, dose response (AID 493248)
P388 = assay: cells; format: functional; settings: Mus musculus
P388/ADR = assay: cells; format: functional; settings: Mus musculus
SN12K1 = assay: cells; format: functional; settings: Homo sapiens
[8] = fluconazole-exposed Candida albicans growth modulators – fluorescence, retest, confirmation (AID 2467); format: functional, cell-based
[9] = NIH-3T3 fibroblast cytotoxicity, dose response, cytotoxicity control, cell-based, fluorescence, Alamar Blue, secondary assay (AID 2327); format: functional;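 also: NIH-3T3 mouse fibroblasts cultured with fluconazole at 8 µg/mL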
[10] = viability of PTEN-deleted HCT116 cells – cell-based, HCT116 PTEN knockout, dose response (AID 1047); format: functional;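 also: HCT116 colon tumor cells with PTEN knocked out; cells exposed to compound for 60 hours before readout; potency for loss of cell viability measured by luminescence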
[11] = biological target: T2, Ubiquitin-conjugating enzyme E2 N (Homo sapiens, UniProt P61088); format: functional;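 also: Dose-response confirmation in a TR-FRET assay detecting UBC13-driven polyubiquitin chain formation, inhibition measured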
T2 sequence (P61088 whole entry): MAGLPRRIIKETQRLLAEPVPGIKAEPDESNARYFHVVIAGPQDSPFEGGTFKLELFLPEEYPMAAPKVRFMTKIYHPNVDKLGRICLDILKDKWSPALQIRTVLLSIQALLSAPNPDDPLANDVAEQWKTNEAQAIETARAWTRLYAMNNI

cells [12] = format: functional, cell-based
cells [13] = format: functional, cell-based; remark: listed apart in the source
Nonstructural protein 1 = Nonstructural protein 1 (Influenza A virus, UniProt Q194T2); format: functional, Influenza A virus (A/California/07/2009(H1N1))
Genome polyprotein = Genome polyprotein (dengue virus type 2, UniProt P29990); assay: flavivirus cap methylation enzyme inhibition – biochemical, confirmation dose response, primary screen (AID 588689); format: functional
Cytochrome P450 2C9 = Cytochrome P450 2C9 (Homo sapiens, UniProt P11712)
Cytochrome P450 2D6 = Cytochrome P450 2D6 (Homo sapiens, UniProt P10635);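 also: CYP2D6 member of a cytochrome P450 panel assay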
Cytochrome P450 2C19 = Cytochrome P450 2C19 (Homo sapiens, UniProt P33261); assay: Cytochrome panel assay with activity outcomes. Panel member name: p450-cyp2c19 Compounds with AC50 equal or less than 10 uM are considered active; format: functional
[14] = biological target: Glyceraldehyde-3-phosphate dehydrogenase (Homo sapiens, UniProt P04406)
[15] = viability of uninfected HEp-2 cells – cell-based, HTS, cytotoxicity control for RSV inhibitor project, dose response (AID 2410); format: functional; settings: human respiratory syncytial virus
Cytochrome P450 3A4 = Cytochrome P450 3A4 (Homo sapiens, UniProt P08684);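 also: CYP3A4 tested as one member of a cytochrome P450 panel screen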
Chain of Cytochrome P450 3A4 (P08684 whole entry): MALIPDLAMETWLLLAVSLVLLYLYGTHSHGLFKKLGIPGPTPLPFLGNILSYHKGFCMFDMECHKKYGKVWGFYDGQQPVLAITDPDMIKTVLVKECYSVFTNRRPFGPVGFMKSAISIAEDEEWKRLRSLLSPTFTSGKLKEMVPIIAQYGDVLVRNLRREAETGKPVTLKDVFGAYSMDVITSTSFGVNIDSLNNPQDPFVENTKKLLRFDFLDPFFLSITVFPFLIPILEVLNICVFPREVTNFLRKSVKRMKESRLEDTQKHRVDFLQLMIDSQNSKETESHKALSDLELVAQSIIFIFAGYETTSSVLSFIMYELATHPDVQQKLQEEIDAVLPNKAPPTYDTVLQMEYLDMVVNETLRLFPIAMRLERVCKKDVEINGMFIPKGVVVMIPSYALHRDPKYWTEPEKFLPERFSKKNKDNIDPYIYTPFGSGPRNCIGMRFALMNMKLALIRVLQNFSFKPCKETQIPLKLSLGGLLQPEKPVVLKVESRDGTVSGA

Chain of Cytochrome P450 2C19 (P33261 whole entry): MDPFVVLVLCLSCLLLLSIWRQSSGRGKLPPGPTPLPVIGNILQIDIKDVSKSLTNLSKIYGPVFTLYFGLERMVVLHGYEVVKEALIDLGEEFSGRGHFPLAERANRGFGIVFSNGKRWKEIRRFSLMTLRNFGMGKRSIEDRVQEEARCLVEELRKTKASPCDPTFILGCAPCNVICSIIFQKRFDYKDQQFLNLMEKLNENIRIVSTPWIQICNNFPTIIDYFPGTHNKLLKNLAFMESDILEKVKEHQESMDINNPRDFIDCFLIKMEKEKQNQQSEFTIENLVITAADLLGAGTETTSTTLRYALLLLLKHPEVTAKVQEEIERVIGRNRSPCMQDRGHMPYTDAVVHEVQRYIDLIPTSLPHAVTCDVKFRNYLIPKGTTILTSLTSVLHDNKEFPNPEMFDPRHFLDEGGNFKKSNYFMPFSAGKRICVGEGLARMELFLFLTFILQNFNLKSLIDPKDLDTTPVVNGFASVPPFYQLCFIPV
T1 sequence (P11940 whole entry): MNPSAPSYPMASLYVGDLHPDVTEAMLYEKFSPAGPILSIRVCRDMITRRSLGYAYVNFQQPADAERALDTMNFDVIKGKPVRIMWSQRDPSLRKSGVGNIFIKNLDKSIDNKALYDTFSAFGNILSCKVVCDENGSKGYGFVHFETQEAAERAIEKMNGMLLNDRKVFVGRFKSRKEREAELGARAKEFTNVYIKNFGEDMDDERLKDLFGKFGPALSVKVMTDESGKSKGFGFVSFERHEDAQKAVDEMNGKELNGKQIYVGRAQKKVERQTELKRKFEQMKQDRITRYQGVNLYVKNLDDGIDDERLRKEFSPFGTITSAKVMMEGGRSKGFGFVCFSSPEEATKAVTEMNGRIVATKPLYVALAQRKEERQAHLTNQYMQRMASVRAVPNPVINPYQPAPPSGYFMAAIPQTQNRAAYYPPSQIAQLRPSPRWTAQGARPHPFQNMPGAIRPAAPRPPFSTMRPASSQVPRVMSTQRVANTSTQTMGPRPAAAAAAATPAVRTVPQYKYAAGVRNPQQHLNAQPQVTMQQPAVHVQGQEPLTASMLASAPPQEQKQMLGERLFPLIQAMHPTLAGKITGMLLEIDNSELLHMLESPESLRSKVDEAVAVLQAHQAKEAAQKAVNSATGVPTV
Chain of FAD-linked sulfhydryl oxidase ALR (P55789 whole entry): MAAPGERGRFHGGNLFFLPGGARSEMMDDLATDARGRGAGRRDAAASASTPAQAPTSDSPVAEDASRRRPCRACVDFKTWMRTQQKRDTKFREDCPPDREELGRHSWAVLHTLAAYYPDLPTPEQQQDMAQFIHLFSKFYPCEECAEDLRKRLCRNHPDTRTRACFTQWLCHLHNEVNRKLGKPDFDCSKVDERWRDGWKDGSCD
Chain of Nonstructural protein 1 (Q194T2 whole entry): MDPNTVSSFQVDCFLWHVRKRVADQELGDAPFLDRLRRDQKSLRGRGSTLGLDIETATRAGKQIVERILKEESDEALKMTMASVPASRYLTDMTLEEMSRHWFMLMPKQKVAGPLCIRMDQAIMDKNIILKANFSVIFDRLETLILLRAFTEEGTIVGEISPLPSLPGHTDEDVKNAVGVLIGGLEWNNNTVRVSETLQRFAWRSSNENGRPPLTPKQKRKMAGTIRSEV
Chain of Cytochrome P450 2D6 (P10635 whole entry): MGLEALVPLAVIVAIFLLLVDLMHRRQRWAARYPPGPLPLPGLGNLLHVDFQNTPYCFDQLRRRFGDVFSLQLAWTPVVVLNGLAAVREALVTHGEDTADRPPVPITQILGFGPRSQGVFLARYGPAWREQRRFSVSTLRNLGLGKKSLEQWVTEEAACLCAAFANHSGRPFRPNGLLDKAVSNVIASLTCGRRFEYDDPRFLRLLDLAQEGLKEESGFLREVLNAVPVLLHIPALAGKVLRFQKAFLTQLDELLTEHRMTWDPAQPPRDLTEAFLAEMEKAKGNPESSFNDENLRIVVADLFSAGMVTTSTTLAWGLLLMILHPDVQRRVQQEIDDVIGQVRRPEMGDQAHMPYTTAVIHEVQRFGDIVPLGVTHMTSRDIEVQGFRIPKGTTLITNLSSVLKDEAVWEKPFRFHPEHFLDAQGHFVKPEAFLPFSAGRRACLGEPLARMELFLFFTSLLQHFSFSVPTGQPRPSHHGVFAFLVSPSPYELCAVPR
Chain of Cytochrome P450 2C9 (P11712 whole entry): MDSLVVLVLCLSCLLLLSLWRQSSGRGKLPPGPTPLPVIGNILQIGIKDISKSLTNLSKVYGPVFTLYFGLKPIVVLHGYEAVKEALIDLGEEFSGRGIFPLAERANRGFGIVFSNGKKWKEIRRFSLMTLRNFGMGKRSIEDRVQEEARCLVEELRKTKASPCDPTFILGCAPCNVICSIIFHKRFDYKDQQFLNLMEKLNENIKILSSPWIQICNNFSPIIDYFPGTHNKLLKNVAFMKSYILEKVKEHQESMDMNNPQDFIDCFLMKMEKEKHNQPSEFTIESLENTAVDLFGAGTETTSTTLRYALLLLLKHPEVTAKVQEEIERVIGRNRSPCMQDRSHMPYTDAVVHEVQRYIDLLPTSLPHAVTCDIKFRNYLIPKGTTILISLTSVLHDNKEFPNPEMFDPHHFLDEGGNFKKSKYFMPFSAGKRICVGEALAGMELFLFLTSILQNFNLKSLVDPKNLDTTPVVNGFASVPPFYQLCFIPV
Chain of Glyceraldehyde-3-phosphate dehydrogenase (P04406 whole entry): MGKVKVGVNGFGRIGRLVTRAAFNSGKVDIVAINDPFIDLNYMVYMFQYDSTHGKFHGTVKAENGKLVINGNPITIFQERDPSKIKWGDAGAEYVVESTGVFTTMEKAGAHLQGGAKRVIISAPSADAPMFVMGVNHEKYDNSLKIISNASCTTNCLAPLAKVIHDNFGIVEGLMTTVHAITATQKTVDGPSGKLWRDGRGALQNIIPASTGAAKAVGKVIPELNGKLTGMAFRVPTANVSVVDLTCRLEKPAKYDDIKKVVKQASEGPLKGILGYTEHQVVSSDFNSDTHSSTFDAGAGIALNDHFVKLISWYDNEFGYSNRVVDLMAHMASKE
Chain of Genome polyprotein (P29990 2492-3391 limits assumed): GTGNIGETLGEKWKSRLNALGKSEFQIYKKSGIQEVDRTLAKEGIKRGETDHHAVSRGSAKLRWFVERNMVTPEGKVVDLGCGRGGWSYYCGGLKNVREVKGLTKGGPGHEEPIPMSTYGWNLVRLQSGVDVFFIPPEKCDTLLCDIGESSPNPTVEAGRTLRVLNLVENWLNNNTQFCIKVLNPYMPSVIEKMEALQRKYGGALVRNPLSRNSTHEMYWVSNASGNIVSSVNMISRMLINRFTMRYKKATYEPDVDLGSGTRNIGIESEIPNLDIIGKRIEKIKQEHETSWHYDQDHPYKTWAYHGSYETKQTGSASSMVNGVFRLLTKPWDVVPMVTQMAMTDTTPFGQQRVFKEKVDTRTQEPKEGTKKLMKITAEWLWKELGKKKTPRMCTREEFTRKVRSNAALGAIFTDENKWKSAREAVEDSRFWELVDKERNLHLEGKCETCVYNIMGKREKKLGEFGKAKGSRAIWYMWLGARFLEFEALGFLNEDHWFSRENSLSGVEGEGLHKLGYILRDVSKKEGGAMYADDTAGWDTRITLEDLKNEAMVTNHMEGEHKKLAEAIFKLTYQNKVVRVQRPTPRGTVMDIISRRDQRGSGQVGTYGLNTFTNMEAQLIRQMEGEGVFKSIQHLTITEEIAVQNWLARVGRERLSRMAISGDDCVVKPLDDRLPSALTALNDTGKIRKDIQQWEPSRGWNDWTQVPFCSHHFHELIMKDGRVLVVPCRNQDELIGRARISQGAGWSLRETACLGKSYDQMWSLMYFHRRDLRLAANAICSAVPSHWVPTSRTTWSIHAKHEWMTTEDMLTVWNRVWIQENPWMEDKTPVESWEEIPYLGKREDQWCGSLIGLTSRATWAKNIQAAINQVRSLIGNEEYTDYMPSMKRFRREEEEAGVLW

NC(=O)c1cc2c3ccccc3ccn2c1-c1ccccc1
EC50 (BJ [1]): 0.305 µM (active) | IC50 [2]: > 66 µM (inactive) | EC50 [3]: 0.244 µM (active) | EC50 (BJ [4]): 27.4 µM (inconclusive) | EC50 (BJ [5]): 5.08 µM (inconclusive) | IC50 [6]: 32.2 µM (inactive)

CN(C)c1ccc(/C=N/NC(=O)c2ccn(C)n2)cc1
AC50 [7]: 25.6 µM (active)

CC(C)CC1NC(=O)C(NC(=O)c2ncccc2O)C(C)OC(=O)C(c2ccccc2)N(C)C(=O)C(C)NC(=O)C(C(C)C(C)C)N(C)C(=O)CN(C)C(=O)C2CC(O)CN2C1=O (configuration not stated) ({Picolinoyl(3-OH)}-TL[Hyp][Sar][X56]A[NMePhg]; ester 1-C; configuration not given here)
GI50 (P388): 6.21 µM (inactive) | GI50 (P388/ADR): > 109 µM (inactive) | GI50 (SN12K1): 51.3 µM (inactive)

Cc1nc(C#N)c(N/N=C/c2c(F)cccc2Cl)o1
AC50 [7]: 2.54 µM (active)

COc1ccc2[nH]cc(/C=C(/C)c3ccncc3)c2c1
GI50 (P388): 3.07 µM (inactive) | GI50 (P388/ADR): 2.99 µM (inactive) | GI50 (SN12K1): 16 µM (inactive)

O=C(NCCCc1ccccc1)Nc1cccc(Cl)c1
EC50 [8]: > 38 µM (not active) | EC50 [9]: > 150 µM (inactive) | EC50 [10]: 43.5 µM (active)

CCOc1ccccc1-c1nc(C(N)=O)c2nc(O)n(-c3ccc(F)cc3)c2n1
IC50 [11]: > 20 µM (inactive)

NS(=O)(=O)c1ccc(CNC(=O)c2csc3c2CCCC3)cc1
EC50 (cells [12]): > 350 µM (not active) | EC50 (cells [13]): > 350 µM (not active)

N#C/C(=C\c1ccc(O)cc1)C(N)=O
GI50 (P388): > 100 µM (inactive) | GI50 (P388/ADR): > 100 µM (inactive) | GI50 (SN12K1): > 100 µM (inactive)

Cc1ccc(OC(=O)COc2ccccc2C)c(-n2nc3ccccc3n2)c1
IC50 [2]: > 66 µM (inactive) | IC50 [6]: > 66 µM (inactive)

CCC(C)N(C(=O)CSc1ccc(NC(C)=O)cc1)C1CCS(=O)(=O)C1 (configuration not stated)
IC50 [2]: > 66 µM (inactive) | IC50 [6]: > 66 µM (inactive)

CC(=O)Nc1cccc(NC(=O)CSc2nn3c(=O)c(C)nnc3s2)c1
IC50 (Nonstructural protein 1): 9.96 µM (active)

CSCC[C@@H]1C(=O)N(C)[C@H](C(C)(C)C)N1C(=O)c1ccccc1
GI50 (P388): > 100 µM (inactive) | GI50 (SN12K1): > 100 µM (inactive)

O=C1/C(=C\c2cccnc2)SC(=S)N1C1CCS(=O)(=O)C1 (configuration not stated)
EC50 (BJ [1]): 22.5 µM (active) | EC50 [8]: 0.479 µM (active) | EC50 [3]: 20.4 µM (active) | EC50 (BJ [4]): > 150 µM (inconclusive) | EC50 (BJ [5]): > 150 µM (not active)

O=C(CSc1nc[nH]n1)NCCc1ccc(Cl)cc1Cl
EC50 (cells [12]): > 350 µM (not active) | EC50 (cells [13]): 149 µM (active)

COC1/C=C\C=C(/C)C(=O)NC2=CC(=O)C=C(C2=O)C(OC)C(C)CC(OC)C(OC)C(C)/C=C(/C)C1OC(N)=O (configuration not stated)
GI50 (P388): 0.0166 µM (active) | GI50 (P388/ADR): 1.29 µM (inactive) | GI50 (SN12K1): 1.69 µM (inactive)

C#CCOc1c(/C=C\c2nc(O)c([N+](=O)[O-])c(O)n2)cc(Br)cc1OC
IC50 (Genome polyprotein): 74.5 µM (active)

COc1ccc(C2C3CCCC(C3=O)C(c3ccc(OC)cc3)N2N=O)cc1 (configuration not stated)
GI50 (P388): 19.9 µM (inactive) | GI50 (P388/ADR): 17.9 µM (inactive) | GI50 (SN12K1): 30.5 µM (inactive)

COC(=O)CCCC1=CC2=CC(=O)C(C)(OC(=O)c3cccs3)C(=O)C2=CN1Cc1ccc2c(c1)OCO2 (configuration not stated)
EC50 (cells [12]): > 350 µM (not active) | EC50 (cells [13]): > 350 µM (not active)

Cc1ccc(S(=O)(=O)CCc2nnc(NC(=O)c3ccccn3)s2)cc1
IC50 (Nonstructural protein 1): 10.2 µM (active)

COc1ccc(Oc2ncc3nc(C)c(=O)n(Cc4cccs4)c3n2)cc1
AC50 (Cytochrome P450 2C9): 39.8 µM (inconclusive) | AC50 (Cytochrome P450 2D6): 25.1 µM (inconclusive) | AC50 (Cytochrome P450 2C19): 39.8 µM (inconclusive)

COc1cccc(N2CCN(C3=C(Cl)C(=O)N(c4cccc(C(F)(F)F)c4)C3=O)CC2)c1
IC50 [14]: > 50 µM (inconclusive)

CCC(NCc1cc(OC)cc(OC)c1)=C1C(=O)NC(=O)NC1=O
EC50 (cells [12]): > 350 µM (not active) | EC50 (cells [13]): > 350 µM (not active)

CN(C)c1ccc(-c2cc(NCc3cccnc3)ncn2)cc1
AC50 (Cytochrome P450 2C19): 39.8 µM (inconclusive)

Cc1cc(Cl)n2nc(C)c(-c3ccc(Cl)cc3)c2n1
EC50 [8]: > 38 µM (not active) | EC50 [9]: > 150 µM (inactive) | CC50 [15]: 27.6 µM (active)

Cc1c(Cl)c([N+](=O)[O-])nn1CC(=O)NC12CC3CC(CC(C3)C1)C2
EC50 (cells [12]): > 350 µM (not active) | EC50 (cells [13]): > 350 µM (not active)

O=C1OCC(c2ccccc2)=C1c1ccc(S(=O)(=O)N2CCOCC2)s1
AC50 (Cytochrome P450 2D6): 31.6 µM (inconclusive) | AC50 (Cytochrome P450 2C19): 22.4 µM (inconclusive) | AC50 (Cytochrome P450 3A4): 28.2 µM (inconclusive)
